How the values were obtained:
[1] = system: Puccinia recondita f. Sp. Tritici; assay: Fungicidal activity, wheat leaf disc preventative (brown rust); format: in vivo; conditions: foliar, 200 ppm in the applied formulation, wheat leaf segments cv. Kanzler, compared to untreated control, 7 to 9 days after application, read-out: disease control
Summary of the method: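 Preventative leaf-segment test: spray application of diluted formulated compound on wheat cv. Kanzler, spore inoculation after 1 day. Percent control relative to untreated segments rated 7 to 9 days post-application, with incubation at 19° C, 75% relative humidity, 12 h photoperiod.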

[2] = system: Phakopsora pachyrhizi; assay: Fungicidal activity, soybean leaf disc preventative (Asian soybean rust); format: in vivo; conditions: foliar, 200 ppm in the applied formulation, soybean leaf disks, compared to untreated control, 12 to 14 days after application, read-out: disease control
Procedure: Leaf disks or leaf segments of various plant species are cut from plants grown in a greenhouse. The cut leaf disks or segments are placed in multiwell plates (24-well format) onto water agar. The leaf disks are sprayed with a test solution before (preventative) or after (curative) inoculation. Compounds to be tested are prepared as DMSO solutions (max. 10 mg/ml) which are diluted to the appropriate concentration with 0.025% Tween20 just before spraying. The inoculated leaf disks or segments are incubated under defined conditions (temperature, relative humidity, light, etc.) according to the respective test system. A single evaluation of disease level is carried out 3 to 14 days after inoculation, depending on the pathosystem. Percent disease control relative to the untreated check leaf disks or segments is then calculated.
Soybean leaf disks are placed on water agar in multiwell plates (24-well format) and sprayed with the formulated test compound diluted in water. One day after application leaf discs are inoculated by spraying a spore suspension on the lower leaf surface. After an incubation period in a climate cabinet of 24-36 hours in darkness at 20° C. and 75% rh leaf disc are kept at 20° C. with 12 h light/day and 75% rh. The activity of a compound is assessed as percent disease control compared to untreated when an appropriate level of disease damage appears in untreated check leaf disks (12 to 14 days after application).
The following compounds at 200 ppm in the applied formulation give at least 80% disease control in this test when compared to untreated control leaf disks under the same conditions, which show extensive disease development.

[3] = system: Puccinia recondita f. Sp. Tritici; assay: Fungicidal activity, wheat leaf disc curative (brown rust); format: in vivo; conditions: foliar, 200 ppm in the applied formulation, wheat leaf segments cv. Kanzler, curative (applied 1 day after inoculation), compared to untreated control, 6 to 8 days after application, read-out: disease control
Summary of the method: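 Segments of wheat (cultivar Kanzler) sit on agar and are spore-inoculated first; after one day in darkness at 19° C and 75% RH the diluted formulated compound is sprayed on. A 12 h photoperiod follows at the same temperature and humidity before disease is scored against untreated controls.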

[4] = system: Glomerella lacenarium (Colletotrichum lacenarium); assay: Fungicidal activity, liquid culture, cucumber preventative (anthracnose); format: cell-based; conditions: 20 ppm in the applied formulation, liquid culture in PDB, inhibition of growth measured photometrically 3 to 4 days after application, compared to untreated control, read-out: disease control
Summary of the method: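 Test compound in DMSO is placed in a microtiter plate, then potato dextrose broth containing conidia from cryogenic storage is added. Incubation runs at 24° C., and growth inhibition is read photometrically after 3 to 4 days.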

CCCC(=O)NCc1ccc(-c2noc(C(F)(F)F)n2)s1 [Compound 2.8, N-[[5-[5-(trifluoromethyl)-1,2,4-oxadiazol-3-yl]-2-thienyl]methyl]butanamide]
≥ 80%: pest or weed control at 200 ppm [1] | pest or weed control at 200 ppm [2] | pest or weed control at 200 ppm [3] | inhibition of growth at 20 ppm [4]

CC(C)C(=O)NCc1ccc(-c2noc(C(F)(F)F)n2)s1 [Compound 2.9, 2-methyl-N-[[5-[5-(trifluoromethyl)-1,2,4-oxadiazol-3-yl]-2-thienyl]methyl]propanamide]
≥ 80%: pest or weed control at 200 ppm [1] | pest or weed control at 200 ppm [2] | pest or weed control at 200 ppm [3] | inhibition of growth at 20 ppm [4]

COCCCC(=O)NCc1ccc(-c2noc(C(F)(F)F)n2)s1 [Compound 2.10, 4-methoxy-N-[[5-[5-(trifluoromethyl)-1,2,4-oxadiazol-3-yl]-2-thienyl]methyl]butanamide]
≥ 80%: pest or weed control at 200 ppm [1] | pest or weed control at 200 ppm [2] | pest or weed control at 200 ppm [3] | inhibition of growth at 20 ppm [4]

CC(=O)NCc1ccc(-c2noc(C(F)(F)F)n2)s1 [Compound 2.11, N-[[5-[5-(trifluoromethyl)-1,2,4-oxadiazol-3-yl]-2-thienyl]methyl]acetamide]
≥ 80%: pest or weed control at 200 ppm [1] | pest or weed control at 200 ppm [2] | pest or weed control at 200 ppm [3] | inhibition of growth at 20 ppm [4]

O=C(CC(F)(F)F)NCc1ccc(-c2noc(C(F)(F)F)n2)s1 [Compound 2.12, 3,3,3-trifluoro-N-[[5-[5-(trifluoromethyl)-1,2,4-oxadiazol-3-yl]-2-thienyl]methyl]propanamide]
≥ 80%: pest or weed control at 200 ppm [1] | pest or weed control at 200 ppm [2] | pest or weed control at 200 ppm [3] | inhibition of growth at 20 ppm [4]

O=C(NCc1ccc(-c2noc(C(F)(F)F)n2)s1)C1CC1 [Compound 3.1, N-[[5-[5-(trifluoromethyl)-1,2,4-oxadiazol-3-yl]-2-thienyl]methyl]cyclopropanecarboxamide]
≥ 80%: pest or weed control at 200 ppm [1] | pest or weed control at 200 ppm [2] | pest or weed control at 200 ppm [3] | inhibition of growth at 20 ppm [4]

O=C(NCc1ccc(-c2noc(C(F)(F)F)n2)s1)C1CC1(F)F (stereo not shown) [Compound 3.2, 2,2-difluoro-N-[[5-[5-(trifluoromethyl)-1,2,4-oxadiazol-3-yl]-2-thienyl]methyl]cyclopropanecarboxamide]
≥ 80%: pest or weed control at 200 ppm [1] | pest or weed control at 200 ppm [2] | pest or weed control at 200 ppm [3] | inhibition of growth at 20 ppm [4]

O=C(NCc1ccc(-c2noc(C(F)(F)F)n2)s1)C1CCOC1 (stereo not shown) [Compound 3.3, N-[[5-[5-(trifluoromethyl)-1,2,4-oxadiazol-3-yl]-2-thienyl]methyl]tetrahydrofuran-3-carboxamide]
≥ 80%: pest or weed control at 200 ppm [1] | pest or weed control at 200 ppm [2] | pest or weed control at 200 ppm [3] | inhibition of growth at 20 ppm [4]

O=C(NCc1ccc(-c2noc(C(F)(F)F)n2)s1)C1CCC1 [Compound 3.4, N-[[5-[5-(trifluoromethyl)-1,2,4-oxadiazol-3-yl]-2-thienyl]methyl]cyclobutanecarboxamide]
≥ 80%: pest or weed control at 200 ppm [1] | pest or weed control at 200 ppm [2] | pest or weed control at 200 ppm [3] | inhibition of growth at 20 ppm [4]

CC1CC1C(=O)NCc1ccc(-c2noc(C(F)(F)F)n2)s1 (stereo not shown) [Compound 3.5, 2-methyl-N-[[5-[5-(trifluoromethyl)-1,2,4-oxadiazol-3-yl]-2-thienyl]methyl]cyclopropanecarboxamide]
≥ 80%: pest or weed control at 200 ppm [1] | pest or weed control at 200 ppm [2] | pest or weed control at 200 ppm [3] | inhibition of growth at 20 ppm [4]

CC1(C(=O)NCc2ccc(-c3noc(C(F)(F)F)n3)s2)CC1 [Compound 3.6, 1-methyl-N-[[5-[5-(trifluoromethyl)-1,2,4-oxadiazol-3-yl]-2-thienyl]methyl]cyclopropanecarboxamide]
≥ 80%: pest or weed control at 200 ppm [1] | pest or weed control at 200 ppm [2] | pest or weed control at 200 ppm [3] | inhibition of growth at 20 ppm [4]

CC1(C(=O)NCc2ccc(-c3noc(C(F)(F)F)n3)s2)COC1 [Compound 3.7, 3-methyl-N-[[5-[5-(trifluoromethyl)-1,2,4-oxadiazol-3-yl]-2-thienyl]methyl]oxetane-3-carboxamide]
≥ 80%: pest or weed control at 200 ppm [1] | pest or weed control at 200 ppm [2] | pest or weed control at 200 ppm [3] | inhibition of growth at 20 ppm [4]

O=C(NCc1ccc(-c2noc(C(F)(F)F)n2)s1)C1CCCO1 (stereo not shown) [Compound 3.8, N-[[5-[5-(trifluoromethyl)-1,2,4-oxadiazol-3-yl]-2-thienyl]methyl]tetrahydrofuran-2-carboxamide]
≥ 80%: pest or weed control at 200 ppm [1] | pest or weed control at 200 ppm [2] | pest or weed control at 200 ppm [3] | inhibition of growth at 20 ppm [4]

O=C(NCc1ccc(-c2noc(C(F)(F)F)n2)s1)c1ccccc1Cl [Compound 3.9, 2-chloro-N-[[5-[5-(trifluoromethyl)-1,2,4-oxadiazol-3-yl]-2-thienyl]methyl]benzamide]
≥ 80%: pest or weed control at 200 ppm [1] | pest or weed control at 200 ppm [2] | pest or weed control at 200 ppm [3] | inhibition of growth at 20 ppm [4]

O=C(CC1CC1)NCc1ccc(-c2noc(C(F)(F)F)n2)s1 [Compound 3.10, 2-cyclopropyl-N-[[5-[5-(trifluoromethyl)-1,2,4-oxadiazol-3-yl]-2-thienyl]methyl]acetamide]
≥ 80%: pest or weed control at 200 ppm [1] | pest or weed control at 200 ppm [2] | pest or weed control at 200 ppm [3] | inhibition of growth at 20 ppm [4]

CNC(=O)N(C)Cc1ccc(-c2noc(C(F)(F)F)n2)s1 [Compound 4.1, 1,3-dimethyl-1-[[5-[5-(trifluoromethyl)-1,2,4-oxadiazol-3-yl]-2-thienyl]methyl]urea]
≥ 80%: pest or weed control at 200 ppm [1] | pest or weed control at 200 ppm [2] | pest or weed control at 200 ppm [3] | inhibition of growth at 20 ppm [4]

CNC(=O)N(Cc1ccc(-c2noc(C(F)(F)F)n2)s1)C1CC1 [Compound 4.2, 1-cyclopropyl-3-methyl-1-[[5-[5-(trifluoromethyl)-1,2,4-oxadiazol-3-yl]-2-thienyl]methyl]urea]
≥ 80%: pest or weed control at 200 ppm [1] | pest or weed control at 200 ppm [2] | pest or weed control at 200 ppm [3] | inhibition of growth at 20 ppm [4]

CCN(Cc1ccc(-c2noc(C(F)(F)F)n2)s1)C(=O)NC [Compound 4.5, 1-ethyl-3-methyl-1-[[5-[5-(trifluoromethyl)-1,2,4-oxadiazol-3-yl]-2-thienyl]methyl]urea]
≥ 80%: pest or weed control at 200 ppm [1] | pest or weed control at 200 ppm [2] | pest or weed control at 200 ppm [3] | inhibition of growth at 20 ppm [4]

CCN(Cc1ccc(-c2noc(C(F)(F)F)n2)s1)C(=O)C(C)C [Compound 4.7, N-ethyl-2-methyl-N-[[5-[5-(trifluoromethyl)-1,2,4-oxadiazol-3-yl]-2-thienyl]methyl]propanamide]
≥ 80%: pest or weed control at 200 ppm [1] | pest or weed control at 200 ppm [2] | pest or weed control at 200 ppm [3] | inhibition of growth at 20 ppm [4]

CCNC(=O)N(CC)Cc1ccc(-c2noc(C(F)(F)F)n2)s1 [Compound 4.8, 1,3-diethyl-1-[[5-[5-(trifluoromethyl)-1,2,4-oxadiazol-3-yl]-2-thienyl]methyl]urea]
≥ 80%: pest or weed control at 200 ppm [1] | pest or weed control at 200 ppm [2] | pest or weed control at 200 ppm [3] | inhibition of growth at 20 ppm [4]

CCN(Cc1ccc(-c2noc(C(F)(F)F)n2)s1)C(=O)NC(C)C [Compound 4.9, 1-ethyl-3-isopropyl-1-[[5-[5-(trifluoromethyl)-1,2,4-oxadiazol-3-yl]-2-thienyl]methyl]urea]
≥ 80%: pest or weed control at 200 ppm [1] | pest or weed control at 200 ppm [2] | pest or weed control at 200 ppm [3] | inhibition of growth at 20 ppm [4]

CC(C)C(=O)N(C)Cc1ccc(-c2noc(C(F)(F)F)n2)s1 [Compound 4.10, N,2-dimethyl-N-[[5-[5-(trifluoromethyl)-1,2,4-oxadiazol-3-yl]-2-thienyl]methyl]propanamide]
≥ 80%: pest or weed control at 200 ppm [1] | pest or weed control at 200 ppm [2] | pest or weed control at 200 ppm [3] | inhibition of growth at 20 ppm [4]
